# pIC50: −log10 of the molar value. Where two headings read alike, the source gives them in different places.
# Experiments:
# [1] = target: VIM-1 (Pseudomonas aeruginosa, UniProt A0A0F7KYQ8); assay: Enzyme activity: determination of IC50, fluorescence assay with CCF2-FA substrate; format: biochemical; settings: CCF2-FA 1.25 μM, 2 hours at 25° C., read-out: VIM1 IC50
# Method in brief: (§1)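 Enzyme at 1 pM (NDM-1), 2 pM (IMP-1) or 30 pM (VIM-1) was incubated with inhibitor (20 μM to 0.00063 μM) and 1.25 μM CCF2-FA in 100 mM KH2PO4 pH 7, 0.005% Tween-20, 10 μM ZnSO4 for 2 hours at 25° C. Fluorescence was read at ex 405/em 460 nm; IC50 from 4-parameter fit.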
# [2] = target: IMP-1 (Serratia marcescens, UniProt P52699); assay: as above; format: biochemical; settings: CCF2-FA 1.25 μM, 2 hours at 25° C., read-out: IMP1 IC50
# Method in brief: as §1
# [3] = target: NDM-1 (Klebsiella pneumoniae, UniProt C7C422); assay: as above; format: biochemical; settings: CCF2-FA 1.25 μM, 2 hours at 25° C., read-out: NDM1 IC50
# Method in brief: as §1
# [4] = system: Escherichia coli expressing NDM-1 (CLB30016); assay: Antibiotic potentiation activity: synergistic concentration (MITC95) with imipenem, growth by OD600; format: cell-based
# Method in brief: (§2)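 Colonies from overnight agar plates (35 °C) were suspended in saline and diluted 1:100 into 1.1× CAMHB. Inhibitor (final 200 μM to 0.195 μM) was combined with imipenem at 1 or 4 μg/ml, incubated 22–24 h at 35 °C, and absorbance read; MITC95 is the lowest inhibitor concentration giving 95% growth inhibition.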
# [5] = system: Serratia marcescens expressing IMP-1 (CL5741); assay: as above; format: cell-based
# Method in brief: as §2
# [6] = system: Klebsiella pneumoniae expressing VIM-1 (IHMA599644); assay: as above; format: cell-based
# Method in brief: as §2
# [7] = E. coli CLB30016 (NDM-1), 95% inhibition of growth
# [8] = S. marcescens CL5741 (IMP-1), 95% inhibition of growth
# [9] = K. pneumoniae IHMA599644 (VIM-1), 95% inhibition of growth
# [10] = 95% inhibition of bacterial growth, strain CLB30016
# [11] = 95% inhibition of bacterial growth, strain CL5741
# [12] = 95% inhibition of bacterial growth, strain IHMA599644
# IMP-1, sequence (P52699 19-246, looked up, species assumed): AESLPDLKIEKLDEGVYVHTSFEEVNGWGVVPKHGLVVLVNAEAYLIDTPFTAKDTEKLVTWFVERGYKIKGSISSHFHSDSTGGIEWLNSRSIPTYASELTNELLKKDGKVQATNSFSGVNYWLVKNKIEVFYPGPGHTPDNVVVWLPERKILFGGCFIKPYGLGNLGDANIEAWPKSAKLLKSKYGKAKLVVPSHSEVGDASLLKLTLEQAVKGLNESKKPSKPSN
# NDM-1, sequence (C7C422 29-270, looked up, species assumed): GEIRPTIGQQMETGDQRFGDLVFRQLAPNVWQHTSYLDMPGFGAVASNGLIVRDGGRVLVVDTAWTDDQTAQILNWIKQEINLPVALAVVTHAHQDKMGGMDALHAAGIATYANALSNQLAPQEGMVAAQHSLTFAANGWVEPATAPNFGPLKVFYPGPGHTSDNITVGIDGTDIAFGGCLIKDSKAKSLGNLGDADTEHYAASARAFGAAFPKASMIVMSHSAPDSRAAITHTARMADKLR
SMILES,pIC50 ([1]; VIM-1 enzyme 30 pM),pIC50 ([2]; IMP-1 enzyme 2 pM),pIC50 ([3]; NDM-1 enzyme 1 pM),"NDM1 EC30016 MITC95 [4, 7] [µM]","IMP1 SM5741 MITC95 [5, 8] [µM]","VIM1 KP599644 MITC95 [6, 9] [µM]",pIC50 ([1]; enzyme 30 pM),pIC50 ([2]; enzyme 2 pM),pIC50 ([3]; enzyme 1 pM),"NDM1 EC30016 MITC95 [4, 10] [µM]","IMP1 SM5741 MITC95 [5, 11] [µM]","VIM1 KP599644 MITC95 [6, 12] [µM]"
"CCC[C@H](C(=O)O)[C@H](Cc1ccc(F)cc1F)c1nnn[nH]1 [Example 262, (2S)-2-[(1S)-2-(2,4-difluorophenyl)-1-(1H-tetrazol-5-yl)ethyl]pentanoic acid]",8.51,5.89,7.15,6.2,18.8,12.5,,,,,,
"CCC[C@H](C(=O)O)[C@H](Cc1ccc(-c2ccc(CN)cc2)nc1)c1nnn[nH]1 [Example 96, (4-(5-((2S,3S)-3-carboxy-2-(1H-tetrazol-5-yl)hexyl)pyridin-2-yl)phenyl)methanaminium]",,,,,,,8.05,5.51,6.55,6.2,37,18.8
"CC(C)C[C@H](C(=O)O)[C@H](Cc1ccc(Oc2ccccn2)nc1)c1nn[nH]n1 [Example 391, (2S)-4-methyl-2-[(1S)-2-[6-(pyridin-2-yloxy)pyridin-3-yl]-1-(2H-tetrazol-5-yl)ethyl]pentanoic acid]",7.28,6.19,7.36,25,25,100,,,,,,
"CCC[C@H](C(=O)[O-])[C@H](Cc1ccc(C2=CCC[N+](C)(C)C2)nc1)c1nnn[nH]1 [Example 293, (S)-2-((S)-2-(1′,1′-dimethyl-1′,2′,5′,6′-tetrahydro-[2,3′-bipyridin]-1′-ium-5-yl)-1-(1H-tetrazol-5-yl)ethyl)pentanoate]",7.66,4.80,5.62,25,100,50,,,,,,
"CC(C)C[C@H](C(=O)O)[C@H](Cc1cnc(N)s1)c1nnn[nH]1 [Example 116, (2S)2-[(1S)-2-(2-amino-1,3-thiazol-5-yl)-1-(1H-tetrazol-5-yl)ethyl]-4-methylpentanoic acid]",,,,,,,8.36,6.54,6.85,3.1,9.4,18.8
"CC(C)[C@H](C(=O)O)[C@H](Cc1ccccc1C1=CCNC1)c1nnn[nH]1 [Example 70, (2S,3S)-4-(2-(2,5-dihydro-1H-pyrrol-3-yl)phenyl)-2-isopropyl-3-(1H-tetrazol-5-yl)butanoic acid]",,,,,,,6.62,< 4.70,6.74,12.5,>200,50
"CCC[C@H](C(=O)O)[C@H](C[C@@H](C)c1ccccc1)c1nnn[nH]1 [Example 265, (2S,3S,5R)-5-phenyl-2-propyl-3-(1H-tetrazol-5-yl)hexanoic acid]",7.62,5.74,6.89,18.8,50,75,,,,,,
"CC(C)C[C@H](C(=O)O)[C@H](Cc1ccc(-c2ccc(N)nc2)cn1)c1nn[nH]n1 [Example 172, (2S)-2-[(1S)-2-(6′-amino-3,3′-bipyridin-6-yl)-1-(2H-tetrazol-5-yl)ethyl]-4-methylpentanoic acid]",,,,,,,7.31,6.10,7.28,12.5,38,50
"CCC[C@H](C(=O)O)[C@H](Cc1cccc(Br)c1)c1nn[nH]n1 [Example 16, (S)-2-((S)-2-(3-bromophenyl)-1-(2H-tetrazol-5-yl)ethyl)pentanoic acid]",,,,,,,9.12,6.92,7.92,9.4,4.7,9.4
"CC(C[C@H](C(=O)O)[C@H](Cc1ccc(N)nc1)c1nnn[nH]1)c1ccccc1 (stereo partly drawn) [Example 404, (2S)-2-((S)-2-(6-aminopyridin-3-yl)-1-(1H-tetrazol-5-yl)ethyl)-4-phenylpentanoic acid]",7.66,6.21,6.64,18.75,75,75,,,,,,
